“And” between values parts separate entries of the source, which are not always exact repeats. Equal values may be shown once. Blank lines part the entries; values can stand above or below the compound they belong to.
Experiments:
[1] = system: breast cancer cell line MCF-7; test: Drug sensitivity assay (cell viability after 4 days of drug); type: cell-based; conditions: MCF-7 (positive control)
[2] = system: melanoma cell lines (SK-MEL-28, WM266-4, MM96L and A2058); test: as above; type: cell-based; conditions: range over the melanoma cell lines
[3] = system: Akt; test: IGF-1-induced activation of Akt signaling under NVP-AEW541 (data not shown); type: cell-based
[4] = system: ERK 1/2; test: IGF-1-induced activation of ERK 1/2 signaling under NVP-AEW541 (data not shown); type: cell-based
[5] = system: SK-MEL-28 melanoma cells; test: Cell viability assay (MTS) after miRNA transfection, with or without drug; Bliss synergy analysis; conditions: for EObs/EBliss: >1 = synergistic; for EBliss: fractional inhibition expected if exactly additive; for EObs: observed fractional inhibition of the combination
Description: (§5) Cells were seeded in 96-well plates at a density of 2.5×10^3 cells per well and transfected with miRNA precursor molecules as above. Cell viability was measured 5 days after transfection using CellTitre 96 Aqueous One Solution Cell Proliferation Assay Kit (MTS assay) and a FLUOstar OPTIMA microplate reader. For synergy analysis between drugs and miR-7-5p, cells were plated as above and drug or DMSO was added 3 days after transfection with miR-7-5p or miR-NC for 4 days, at which time cell viability was measured (7 days after transfection).
(§6) Statistical significance was calculated using Student's t test (one-tailed, unpaired) and the level of significance was set at p<0.05. Drug sensitivity (IC50) was calculated using GraphPad Software (GraphPad Prism, version 5.04). The Bliss additivism model was used for synergy analysis. […] Here, Ebliss is the fractional inhibition expected if the combination of miR-7-5p and drug B was exactly additive. If the experimentally measured fractional inhibition is greater than Ebliss, the combination is synergistic.

[6] = system: WM266-4 melanoma cells; test: as above; conditions: for EObs: observed fractional inhibition of the combination
Description: as §5, §6

[7] = system: MM96L melanoma cells; test: as above; conditions: for EObs: observed fractional inhibition of the combination
Description: as §5, §6

[8] = system: A2058 melanoma cells; test: as above; conditions: for EObs/EBliss: >1 = synergistic; for EBliss: fractional inhibition expected if exactly additive; for EObs: observed fractional inhibition of the combination; for cell viability, combination of miR-7-5p and drug compared to miR-NC: miR-7-5p 5 nM, suboptimal dose of drug (below the IC50) added 3 days post-transfection, 4 further days; for synergy of combination with miR-7-5p (Bliss additivism model): observed fractional inhibition greater than calculated additive inhibition
Description: as §5, §6

[9] = system: WM266-4 melanoma cells; test: Drug sensitivity assay (cell viability after 4 days of drug); type: cell-based; conditions: Homo sapiens, WM 266-4, 96 h, WM266-4 (wild type p53)
[10] = system: A2058 melanoma cells; test: as above; type: cell-based; conditions: Homo sapiens, 96 h, A2058 (wild type p53)
[11] = system: 1205Lu melanoma cells; test: xCELLigence real-time cell migration assay; type: cell-based; conditions: further study, 20-25 hour period
Text: (§1) Cell migration and invasion was monitored with a Real-Time Cell Analyser dual-plate (RTCA DP) xCELLigence System (Roche Applied Science; Mannheim, Germany). This instrument employs cellular migration plates (CIM-plate 16) which contain microelectronic sensors on the underside of an 8 μm microporous polyethylene terephthalate (PET) membrane of a Boyden-like upper chamber and a lower chamber containing media or chemoattractant. As cells migrate or invade from the upper chamber to the lower chamber they interact with the sensors causing an increase in electrical impedance. Changes in cell impedance over time relates to a change in the number of cells interacting with the sensors, allowing real-time measurement of cell migration as a cell index value. […] After 48 h incubation cells were trypsinised, resuspended in serum free media and seeded into the upper chamber of CIM-plates. The lower chambers were filled with media containing 10% FBS (chemoattractant) or serum free media as a control. Migration was monitored over a 24 hour period with impedance measurements every 15 min. For invasion assays, the CIM-plates were coated with Matrigel (BD Biosciences; diluted at a ratio of 1:20 in serum free medium) approximately 4 hours prior to seeding cells.

[12] = system: A2058 melanoma cells; test: xCELLigence real-time cell migration assay; type: cell-based
Text: as §1

[13] = system: A375 melanoma cells; test: xCELLigence real-time cell migration assay; type: cell-based; conditions: further study, 20-25 hour period
Text: as §1

[14] = system: WM266-4 melanoma cells; test: xCELLigence real-time cell migration assay; type: cell-based
Text: as §1

[15] = system: 1205Lu melanoma cells; test: xCELLigence real-time cell invasion assay (Matrigel); type: cell-based; conditions: further study, 20-25 hour period
Text: as §1

[16] = system: A2058 melanoma cells; test: as above; type: cell-based; conditions: further study, 20-25 hour period
Text: as §1

[17] = system: A375 melanoma cells; test: as above; type: cell-based; conditions: further study, 20-25 hour period
Text: as §1

[18] = system: WM266-4 melanoma cells; test: as above; type: cell-based; conditions: further study, 20-25 hour period
Text: as §1

[19] = system: FAK; test: Immunoblotting after transfection of melanoma cells; type: cell-based; conditions: WM266-4 and A2058; 30 nM, protein harvested at time of migration assay (48 hours)
Description: (§2) Optimal cell numbers were transfected using Lipofectamine 2000 (Invitrogen) with miR-7-5p (SEQ ID NO: 1; synthesised by Ambion) or miR-NC precursor molecules (hereinafter “miR-NC”; Ambion AM17110) at final concentrations ranging from 1-30 nM. For siRNA transfections, Silencer Select siRNAs (Invitrogen) Negative Control No. 1 (si-NC; 4390843), si-IRS-2 #1 (s16486), si-IRS-2 #2 (s16487) were transfected using Lipofectamine 2000 (Invitrogen) according to the manufacturer's protocol. Cells were harvested 24 hours later for RNA or 2-3 days after transfection for protein extraction.
(§3) Protein was harvested with Cytoplasmic Extract Buffer (CEB)-containing PhosSTOP phosphatase inhibitors (Roche; New South Wales, Australia) and Complete EDTA-free protease inhibitors (Roche). Cell lysates were frozen at −80° C. overnight, cleared by centrifugation at 13,000×g for 5 min, and supernatants collected. Total protein concentrations were determined by Bio-Rad protein assay (Bio-Rad; New South Wales, Australia) as per manufacturer's instructions and using a FLUOstar OPTIMA microplate reader.
(§4) Fifteen μg of total protein samples were resolved on NuPAGE NO VEX 4-12% Bis-Tris gels (Invitrogen) and transferred to polyvinylidene fluoride (PVDF) western blotting membranes (Roche). The blots were blocked for 1 hour with Odyssey Blocking Buffer (Millennium Science, Victoria, Australia) and incubated overnight at 4° C. with anti-IGF1R, anti-phospho-IGF1R, anti-IRS-1, anti-IRS-2, anti-phospo-IRS-2, anti-ERK 1/2, anti-phospho-ERK 1/2, anti-Akt, anti-phospho-Akt (Ser-473), anti-PAK1 (all from Cell Signaling Technology, Beverly, Mass.), or anti-FAK (Santa Cruz Biotechnology), anti-phospho-IRS-2 (Ser-731; Abeam, Cambridge, Mass.), or anti-β-actin (Abcam), followed by incubation with infrared-conjugated secondary antibodies for 1 hour at room temperature. The membranes were scanned with an Odyssey SA scanner to visualize protein expression (LICOR Biosciences, Lincoln, Nebr.).

[20] = system: IGF1R; test: as above; type: cell-based; conditions: melanoma cell lines; 15 nM, 3 days post-transfection, vs miR-NC
Description: as §2, §3, §4

[21] = system: IRS-1; test: as above; type: cell-based; conditions: 15 nM, 3 days post-transfection
Description: as §2, §3, §4

[22] = system: IRS-2; test: as above; type: cell-based
Description: as §2, §3, §4

[23] = system: P-Akt; test: as above; type: cell-based; conditions: SK-MEL-28, WM266-4 and MM96L; 15 nM, 3 days post-transfection
Description: as §2, §3, §4

[24] = system: P-ERK 1/2; test: as above; type: cell-based; conditions: A2058; 15 nM, 3 days post-transfection
Description: as §2, §3, §4

[25] = system: P-IGF1R; test: as above; type: cell-based; conditions: 15 nM, 3 days post-transfection
Description: as §2, §3, §4

[26] = system: P-IRS-2; test: as above; type: cell-based
Description: as §2, §3, §4

[27] = system: PAK1; test: as above; type: cell-based
Description: as §2, §3, §4

[28] = system: IRS-2 mRNA; test: RT-qPCR of IRS-2 mRNA after transfection; type: cell-based; conditions: WM266-4 and A2058; 24 hours after transfection, normalised to GAPDH, vs miR-NC
Description: as §2

[29] = system: melanoma cell lines; test: Cell viability assay (MTS) after miRNA transfection; type: cell-based; conditions: melanoma cells
Description: Cells were seeded in 96-well plates at a density of 2.5×10^3 cells per well and transfected with miRNA precursor molecules as above. Cell viability was measured 5 days after transfection using CellTitre 96 Aqueous One Solution Cell Proliferation Assay Kit (MTS assay) and a FLUOstar OPTIMA microplate reader.

[30] = [miR-7-5p] 5 nM + [drug] 5 μM, >1 = synergistic
[31] = [miR-7-5p] 5 nM + [drug] 5 μM, fractional inhibition expected if exactly additive
[32] = [miR-7-5p] 5 nM + [drug] 100 nM
[33] = [miR-7-5p] 5 nM + [drug] 150 μM
[34] = further study, 20-25 hour period
[35] = WM266-4 and A2058, 30 nM, protein harvested at time of migration assay (48 hours)
[36] = WM266-4 and A2058, 72 hours after transfection, vs miR-NC
[37] = MTS assay 5 days post-transfection

Compound: COc1cc([C@@H]2c3cc4c(cc3[C@H](O)[C@H]3COC(=O)[C@@H]23)OCO4)cc(OC)c1OC [PPP, picropodophyllin]
- IC50 ([2]; 96 h): 150 to 300 nM
- EObs/EBliss [5, 32]: 1.80 and 1.30
- EBliss [5, 32]: 0.292 and 0.391
- EObs [5, 32]: 0.526 and 0.508
- EObs/EBliss [8, 32]: 1.48 and 1.03 and 1.18
- EBliss [8, 32]: 0.447 and 0.684 and 0.420
- EObs [8, 32]: 0.663 and 0.704 and 0.496
- cell viability, combination of miR-7-5p and drug compared to miR-NC [8]: significant reduction
- synergy of combination with miR-7-5p (Bliss additivism model) [8]: synergistic

Compound: miR-7-5p: Synthetic miRNA precursor molecules corresponding to human miR-7-5p (Ambion, PM10047); SEQ ID NO: 1 (UGGAAGACUAGUGAUUUUGUUGU; synthetic precursor duplex form, further chemistry not given here; listed as Homo sapiens)
- rate of cell migration compared with miR-NC [11]: significantly reduced, or even blocked
- cell migration compared with miR-NC ([12]; 30 nM, seeded 48 hours after transfection, monitored 24 hours): significantly inhibited
- rate of cell migration compared with miR-NC [12, 34]: significantly reduced, or even blocked
- rate of cell migration compared with miR-NC [13]: significantly reduced, or even blocked
- cell migration compared with miR-NC ([14]; 30 nM, seeded 48 hours after transfection, monitored 24 hours, data not shown): significantly inhibited
- rate of cell migration compared with miR-NC [14, 34]: significantly reduced, or even blocked
- rate of cell invasion compared with miR-NC [15]: significantly reduced, or even blocked
- rate of cell invasion compared with miR-NC [16]: significantly reduced, or even blocked
- rate of cell invasion compared with miR-NC [17]: significantly reduced, or even blocked
- rate of cell invasion compared with miR-NC [18]: significantly reduced, or even blocked
- FAK expression [19]: reduction
- IGF1R expression [20]: No change
- IRS-1 expression ([21]; A2058): decrease
- IRS-1 expression ([21]; SK-MEL-28 and WM266-4): modest increase
- IRS-2 expression ([22]; A2058, 15 nM, 3 days post-transfection): reduced
- IRS-2 expression [22, 35]: reduction
- expression of IRS-2 protein [22, 36]: reduced
- P-Akt [23]: downregulated
- P-ERK 1/2 [24]: downregulated
- IGF1R phosphorylation ([25]; A2058): decreased
- IGF1R phosphorylation ([25]; MM96L): increased
- IGF1R phosphorylation ([25]; SK-MEL-28): did not change
- IRS-2 phosphorylation ([26]; SK-MEL-28, 15 nM, 3 days post-transfection): reduced
- active form of IRS-2 (P-IRS-2) [26, 36]: reduced
- protein level of PAK1 ([27]; SK-MEL-28, WM266-4, MM96L and A2058, 15 nM, 3 days post-transfection, vs miR-NC): reductions
- PAK1 expression [27, 35]: reduction
- levels of IRS-2 mRNA [28]: significantly decreased
- final miR-7-5p concentration at which viability was significantly reduced [29]: 1 nM
- cell viability compared with miR-NC ([5]; MTS assay, data not shown): significantly reduced
- cell viability compared with miR-NC ([6]; MTS assay, data not shown): significantly reduced
- cell viability compared with miR-NC [7, 37]: significantly reduced
- cell viability compared with miR-NC [8, 37]: significantly reduced

Now from value to compound, other results behind:

- IC50 [1]: 1500 nM
- IC50 [2]: 8270 to 25000 nM
Compound: Nc1ncnc2c1c(-c1cccc(OCc3ccccc3)c1)cn2C1CC(CN2CCC2)C1 (stereo not shown) [NVP-AEW541]
- IGF-1-induced activation of Akt signaling pathway ([3]; MCF-7 breast cancer cells): attenuated
- Akt activity (IGF-1-induced) ([3]; melanoma cell lines): abrogated
- IGF-1-induced activation of ERK 1/2 signaling pathway ([4]; MCF-7 breast cancer cells): attenuated
- ERK 1/2 activity (IGF-1-induced) ([4]; melanoma cell lines): persistence of ERK 1/2 activity
- EObs/EBliss ([5]; [miR-7-5p] 5 nM + [drug] 5 μM): 1.24 and 1.17
- EBliss ([5]; [miR-7-5p] 5 nM + [drug] 5 μM): 0.474 and 0.265
- EObs ([5]; [miR-7-5p] 5 nM + [drug] 5 μM): 0.588 and 0.309
- EObs/EBliss [6, 30]: 1.06
- EBliss [6, 31]: 0.715
- EObs ([6]; [miR-7-5p] 5 nM + [drug] 5 μM): 0.757
- EObs/EBliss [7, 30]: 1.06
- EBliss [7, 31]: 0.515
- EObs ([7]; [miR-7-5p] 5 nM + [drug] 5 μM): 0.547
- EObs/EBliss ([8]; [miR-7-5p] 5 nM + [drug] 5 μM): 1.10 and 1.20
- EBliss ([8]; [miR-7-5p] 5 nM + [drug] 5 μM): 0.769 and 0.720
- EObs ([8]; [miR-7-5p] 5 nM + [drug] 5 μM): 0.846 and 0.866
- cell viability, combination of miR-7-5p and drug compared to miR-NC [8]: significant reduction
- synergy of combination with miR-7-5p (Bliss additivism model) [8]: synergistic

- IC50 ([2]; 96 h): 80 to 230 nM
Compound: CCCS(=O)(=O)Nc1ccc(F)c(C(=O)c2c[nH]c3ncc(-c4ccc(Cl)cc4)cc23)c1F [PLX4032, vemurafenib]
- EObs ([5]; [miR-7-5p] 5 nM + [drug] 50 nM): 0.661
- EObs [5, 32]: 0.773
- EObs ([7]; [miR-7-5p] 2.5 nM^ + [drug] 50 nM): 0.972 and 0.803 and 0.547
- EObs [8, 32]: 0.855 and 0.853 and 0.790

- IC50 [9]: 73.1 µM
- IC50 [10]: 167 µM
Compound: Cn1nnc2c(C(N)=O)ncn2c1=O [TMZ, temozolomide]
- EObs ([6]; [miR-7-5p] 5 nM + [drug] 50 μM): 0.748 and 0.732
- EObs [7, 33]: 0.747
- EObs ([7]; [miR-7-5p] 5 nM + [drug] 500 μM): 0.864 and 0.878
- EObs ([8]; [miR-7-5p] 5 nM + [drug] 50 μM): 0.680
- EObs [8, 33]: 0.811 and 0.633
